19 compounds from ChEMBL document CHEMBL4477222, “Discovery of Novel Thiophene-Based, Thumb Pocket 2 Allosteric Inhibitors of the Hepatitis C NS5B Polymerase with Improved Potency and Physicochemical Profiles” (J Med Chem, 2016) can be followed below.

Bounds are passed on as bounds.

Series [1] can be described thus: Cytotoxicity against human Huh7ET cells assessed as reduction in cell viability after 4 days. Type of series: cell-based.
A short description of series [2]: Cytotoxicity against human W11.8 cells assessed as reduction in cell viability after 4 days. In kind it is cell-based.
For series [3], the target named is RNA-directed RNA polymerase (Hepacivirus hominis, UniProt O39930, M423T). The experiment in a line: Inhibition of HCV genotype 1a NS5B M423T mutant. On the set-up: species or system Hepatitis C virus subtype 1a.
The target in series [4] is RNA-directed RNA polymerase (Hepacivirus hominis, UniProt O39930, L419M). The series is described as follows: Inhibition of HCV genotype 1a NS5B L419M mutant. Details: species or system Hepatitis C virus subtype 1a.
For series [5], the target named is RNA-directed RNA polymerase (Hepacivirus hominis, UniProt O39930, M423V). The series is described as follows: Inhibition of HCV genotype 1a NS5B M423V mutant. On the set-up: species or system Hepatitis C virus subtype 1a.
In series [6] the target is Nonstructural protein 5A (Hepatitis C virus) (UniProt Q5L478). The series is described as follows: Ratio of EC50 for HCV genotype 1b NS5A infected in human l389lucubi- neo/NS3-375.1-containing Huh7ET cells in presence of 40% human serum to EC50 for HCV genotype 1b NS5A infected in human l389lucubi- neo/NS3-375.1-containing Huh7ET cells. Conditions: Hepatitis C virus subtype 1b.

For series [7], the target named is RNA-directed RNA polymerase (Hepacivirus hominis, UniProt O39930, M423I). The series is described as follows: Inhibition of HCV genotype 1a NS5B M423I mutant. Details: species or system Hepatitis C virus subtype 1a.
Series [8] addresses RNA-directed RNA polymerase (Hepacivirus hominis, UniProt O39930, L419I). The series is described as follows: Inhibition of HCV genotype 1a NS5B L419I mutant. On the set-up: species or system Hepatitis C virus subtype 1a.
Series [9] deals with Nonstructural protein 5A (Hepatitis C virus, UniProt Q5L478). The series is described as follows: Inhibition of HCV genotype 2a NS5A. Details: species or system Hepatitis C virus subtype 2a.
Series [10] deals with Hepatitis C virus. The experiment in a line: Antiviral activity against HCV genotype 1 infected in human assessed as log10 reduction in viral load at 500 mg[…] bid for 3 days measured on day 4 post treatment. In kind it is functional, Hepacivirus hominis.

In the case of `CCC[C@@H](C(=O)N(C)C)N(c1cc(C#CC(C)(C)C)sc1C(=O)O)C(=O)[C@H]1CC[C@H](C)CC1`, the CC50 at 96 h in [1] and in [2] was greater than 20 µM in each case.

Consider `COC[C@@H](C(=O)N(C)C)N(c1cc(C#CC(C)(C)C)sc1C(=O)O)C(=O)[C@H]1CC[C@H](C)CC1`, for which the cytotoxic concentration (CC50) at 96 h in series [1] and in [2] was greater than 20 µM each time.

For `CC[C@@H](C(=O)N(C)C)N(c1cc(C#CC(C)(C)C)sc1C(=O)O)C(=O)[C@H]1CC[C@H](C)CC1`, the 50% cytotoxic concentration (CC50) at 96 h in [1] and in series [2] was greater than 20 µM in each case.

In the case of `CN(C)CCN(C)C(=O)CN(c1cc(C#CC(C)(C)C)sc1C(=O)O)C(=O)[C@H]1CC[C@H](C)CC1`, the CC50 at 96 h in [1] and in series [2] was greater than 20 µM each time.

Regarding `CC(C)(C)C#Cc1cc(N(CC(=O)N2CC(O)C2)C(=O)[C@H]2CC[C@H](C)CC2)c(C(=O)O)s1`, the CC50 at 96 h in [1] and in series [2] was greater than 20 µM throughout.

Turning to `CC(C)(C)C#Cc1cc(N(C(=O)[C@H]2CC[C@H](C)CC2)[C@H]2CC[C@H](O)CC2)c(C(=O)O)s1` [LOMIBUVIR], the CC50 at 96 h in [1] and in series [2] was greater than 20 µM throughout. In addition, the EC50 (commonly the concentration giving half of the maximal effect) in series [3] turned out to be 0.31 µM; in [4], 0.32 µM; in [5], 0.065 µM; in series [7], 0.03 µM; in series [8], 0.32 µM; in series [9], 8.1 µM. For the same compound, the Ratio EC50 in series [6] was 10 to 20. In addition, the FC in series [10] came out at 3.4.

Turning to `C[C@@H](C(=O)N(C)C)N(c1cc(C#CC(C)(C)C)sc1C(=O)O)C(=O)[C@H]1CC[C@H](C)CC1`, the CC50 at 96 h in series [1] and in [2] was greater than 20 µM throughout.

As to `CC(C)(C)C#Cc1cc(N(CC(=O)N2CCCCC2)C(=O)[C@H]2CC[C@H](C)CC2)c(C(=O)O)s1`, the CC50 at 96 h in series [1] and in series [2] was greater than 20 µM each time.

With `CC(C)[C@@H](C(=O)N(C)C)N(c1cc(C#CC(C)(C)C)sc1C(=O)O)C(=O)[C@H]1CC[C@H](C)CC1`, the CC50 at 96 h in series [1] and in series [2] was greater than 20 µM each time.

Take `CC(C)(C)C#Cc1cc(N(CC(=O)N2CCC(O)CC2)C(=O)[C@H]2CC[C@H](C)CC2)c(C(=O)O)s1`: the half-maximal cytotoxic concentration (CC50) at 96 h in [1] and in series [2] was greater than 20 µM in each case.

For `CN(C)C(=O)[C@H](CO)N(c1cc(C#CC(C)(C)C)sc1C(=O)O)C(=O)[C@H]1CC[C@H](C)CC1`, the CC50 at 96 h in series [1] and in [2] was greater than 20 µM each time.

As for `CCN(CC)C(=O)CN(c1cc(C#CC(C)(C)C)sc1C(=O)O)C(=O)[C@H]1CC[C@H](C)CC1`, the CC50 at 96 h in series [1] and in series [2] was greater than 20 µM in each case.

In the case of `C[C@H](C(=O)N(C)C)N(c1cc(C#CC(C)(C)C)sc1C(=O)O)C(=O)[C@H]1CC[C@H](C)CC1`, the CC50 at 96 h in [1] and in [2] was greater than 20 µM throughout.

`CN(C)C(=O)CN(c1cc(C#CC(C)(C)C)sc1C(=O)O)C(=O)[C@H]1CC[C@H](C)CC1`: the CC50 at 96 h in series [1] and in [2] was greater than 20 µM in each case.

Take `CC(C)(C)C#Cc1cc(N(CC(=O)N2CCCC2)C(=O)[C@H]2CC[C@H](C)CC2)c(C(=O)O)s1`: the CC50 at 96 h in series [1] and in series [2] was greater than 20 µM in each case.

For the compound `CNC(=O)CN(c1cc(C#CC(C)(C)C)sc1C(=O)O)C(=O)[C@H]1CC[C@H](C)CC1`, the 50% cytotoxic concentration (CC50) at 96 h in series [1] and in series [2] was greater than 20 µM each time.

`CN1CCN(C(=O)CN(c2cc(C#CC(C)(C)C)sc2C(=O)O)C(=O)[C@H]2CC[C@H](C)CC2)CC1`: the CC50 at 96 h in series [1] and in [2] was greater than 20 µM throughout.

Consider `COC1CCN(C(=O)CN(c2cc(C#CC(C)(C)C)sc2C(=O)O)C(=O)[C@H]2CC[C@H](C)CC2)CC1`, for which the half-maximal cytotoxic concentration (CC50) at 96 h in [1] and in [2] was greater than 20 µM each time.

Take `CC(C)NC(=O)CN(c1cc(C#CC(C)(C)C)sc1C(=O)O)C(=O)[C@H]1CC[C@H](C)CC1`: the CC50 at 96 h in [1] and in series [2] was greater than 20 µM in each case.
